The experiment has as its target T1, TLR8 (Homo sapiens, UniProt Q9NR97).
T1 sequence (Q9NR97 27-1041): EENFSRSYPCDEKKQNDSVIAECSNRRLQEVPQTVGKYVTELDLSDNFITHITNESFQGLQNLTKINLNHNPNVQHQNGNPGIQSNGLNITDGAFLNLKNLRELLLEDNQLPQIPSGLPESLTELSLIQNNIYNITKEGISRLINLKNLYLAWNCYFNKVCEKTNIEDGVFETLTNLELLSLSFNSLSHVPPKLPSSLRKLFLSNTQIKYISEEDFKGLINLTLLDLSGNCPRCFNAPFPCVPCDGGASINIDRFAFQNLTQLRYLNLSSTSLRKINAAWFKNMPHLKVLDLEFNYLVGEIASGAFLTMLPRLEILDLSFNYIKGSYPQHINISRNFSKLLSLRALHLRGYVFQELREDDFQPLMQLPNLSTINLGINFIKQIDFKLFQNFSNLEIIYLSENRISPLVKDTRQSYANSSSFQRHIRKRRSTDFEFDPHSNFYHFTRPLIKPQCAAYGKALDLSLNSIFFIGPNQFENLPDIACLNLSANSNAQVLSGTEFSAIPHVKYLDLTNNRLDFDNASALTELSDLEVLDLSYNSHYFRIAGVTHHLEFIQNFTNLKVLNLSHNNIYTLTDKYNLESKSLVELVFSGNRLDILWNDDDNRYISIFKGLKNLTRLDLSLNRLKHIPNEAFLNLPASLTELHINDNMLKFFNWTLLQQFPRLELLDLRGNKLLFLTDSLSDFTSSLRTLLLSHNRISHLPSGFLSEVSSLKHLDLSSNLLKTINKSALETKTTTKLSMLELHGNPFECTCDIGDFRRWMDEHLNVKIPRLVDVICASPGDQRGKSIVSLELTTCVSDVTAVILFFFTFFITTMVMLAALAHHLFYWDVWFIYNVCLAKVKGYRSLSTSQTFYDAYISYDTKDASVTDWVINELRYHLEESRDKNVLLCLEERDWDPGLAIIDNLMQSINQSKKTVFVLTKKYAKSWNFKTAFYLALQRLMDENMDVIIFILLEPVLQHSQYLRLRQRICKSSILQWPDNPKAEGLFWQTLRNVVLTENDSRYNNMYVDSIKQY
Kind of experiment: huPBMC TLR8 Antagonist IL-6 TR-FRET Assay. The class given is cell-based. More on the design: Fresh blood was collected from normal human donors; endogenous in cells; host or cells: human PBMCs from fresh donor blood. To be noted: human PBMCs stimulated with ssRNA40 1 μg/ml (DOTAP), 14-16 hrs; IL-6 TR-FRET read-out. An outline of the steps:
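Human PBMCs from fresh donor blood (150,000 cells/well) stimulated 14–16 h at 37 °C with DOTAP-complexed ssRNA40 (final 1 μg/ml for TLR8, 10 μg/mL for TLR7) or ODN2216 (final 0.3 μM, TLR9), 0.25% DMSO, ten-point 1/3 compound dilutions. Supernatant IL-6 read by HTRF (TLR8); IFNα by IFNα2b AlphaLISA (TLR7/TLR9).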
For orientation: TR-FRET usually uses a lanthanide donor and a delayed reading to cut background.
Broadly, the IC50 is the concentration that gives 50% inhibition. Consider `Cc1nc(N2CCc3c(c(C)nn3CC34CCC(NC(=O)CCN(C)C)(CC3)CC4)C2)c2c(n1)c(C)nn2C` [compound 24, 3-(dimethyalmino)-N-(4-((3-methyl-5-(1,3,5-trimethyl-1H-pyrazolo[4,3-d]pyrimidin-7-yl)-4,5,6,7-tetrahydro-1H-pyrazolo[4,3-c]pyridin-1-yl)methyl)bicyclo[2.2.2]octan-1-yl)propanamide], for which the IC50 turned out to be 10 nM.

Turning to `Cc1nc(N2CCc3c(c(C)nn3CC34CCC(N5CCCCC5)(CC3)CC4)C2)c2c(n1)c(C)nn2C` [compound 38, 1,3,5-trimethyl-7-(3-methyl-1-((4-(piperidin-1-yl)bicyclo[2.2.2]octan-1-yl)methyl)-6,7-dihydro-1H-pyrazolo[4,3-c]pyridin-5(4H)-yl)-1H-pyrazolo[4,3-d]pyrimidine], the IC50 came out at 31 nM. Turning to `Cc1cc(N2CCc3c(c(C)nn3CC34CCC(N)(CC3)C4)C2)c2cnn(C)c2n1` [compound 44, 4-((5-(1,6-dimethyl-1H-pyrazolo[3,4-b]pyridin-4-yl)-3-methyl-4,5,6,7-tetrahydro-1H-pyrazolo[4,3-c]pyridin-1-yl)methyl)bicyclo[2.2.1]heptan-1-amine], the IC50 was found to be 861 nM.

Turning to `Cc1cc(N2CCc3c(c(C)nn3CC34CCC(NC(=O)CN5CCCC5)(CC3)CC4)C2)c2cnn(C)c2n1` [compound 100, N-(4-((5-(1,6-dimethyl-1H-pyrazolo[3,4-b]pyridin-4-yl)-3-methyl-4,5,6,7-tetrahydro-1H-pyrazolo[4,3-c]pyridin-1-yl)methyl)bicyclo[2.2.2]octan-1-yl)-2-(pyrrolidin-1-yl)acetamide], the IC50 is 15 nM. As for `Cc1cc(N2CCc3c(c(C)nn3CC34CCC(N)(CC3)CC4)C2)c2ccncc2n1` [Compound No. 3, 4-((3-methyl-5-(2-methyl-1,7-naphthyridin-4-yl)-4,5,6,7-tetrahydro-1H-pyrazolo[4,3-c]pyridin-1-yl)methyl)bicyclo[2.2.2]octan-1-amine], the figure is 55 nM; as for `Cc1cc(N2CCc3c(c(C)nn3CC34CCC(N5CCO[C@H](C)C5)(CC3)CC4)C2)c2cnn(C)c2n1` [compound 107, (R)-4-(4-((5-(1,6-dimethyl-1H-pyrazolo[3,4-b]pyridin-4-yl)-3-methyl-4,5,6,7-tetrahydro-1H-pyrazolo[4,3-c]pyridin-1-yl)methyl)bicyclo[2.2.2]octan-1-yl)-2-methylmorpholine], 6 nM; as for `Cc1cc(N2CCc3c(c(C)nn3CC34CCC(N5CCO[C@@H](C)C5)(CC3)CC4)C2)c2cnn(C)c2n1` [compound 109, (S)-4-(4-((5-(1,6-dimethyl-1H-pyrazolo[3,4-b]pyridin-4-yl)-3-methyl-4,5,6,7-tetrahydro-1H-pyrazolo[4,3-c]pyridin-1-yl)methyl)bicyclo[2.2.2]octan-1-yl)-2-methylmorpholine], 16 nM.

Consider `Cc1cc(N2CCc3c(c(C)nn3CC34CCC(N5CC6(COC6)C5)(CC3)CC4)C2)c2cnn(C)c2n1` [compound 116, 6-(4-((5-(1,6-dimethyl-1H-pyrazolo[3,4-b]pyridin-4-yl)-3-methyl-4,5,6,7-tetrahydro-1H-pyrazolo[4,3-c]pyridin-1-yl)methyl)bicyclo[2.2.2]octan-1-yl)-2-oxa-6-azaspiro[3.3]heptane], for which the half-inhibitory concentration (IC50) is 68 nM. Turning to `Cc1nn(CC23CCC(N)(CC2)CC3)c2c1CN(c1ccnc3[nH]ncc13)CC2` [compound 41, 4-((3-methyl-5-(1H-pyrazolo[3,4-b]pyridin-4-yl)-4,5,6,7-tetrahydro-1H-pyrazolo[4,3-c]pyridin-1-yl)methyl)bicyclo[2.2.2]octan-1-amine], the IC50 was 4590 nM.

For the molecule `[2H]C([2H])([2H])n1ncc2c(N3CCc4c(c(C)nn4CC45CCC(N)(CC4)CC5)C3)cc(C)nc21` [Compound No. 140, 4-((3-methyl-5-(6-methyl-1-(methyl-d3)-1H-pyrazolo[3,4-b]pyridin-4-yl)-4,5,6,7-tetrahydro-1H-pyrazolo[4,3-c]pyridin-1-yl)methyl)bicyclo[2.2.2]octan-1-amine], the IC50 turned out to be 331 nM.

As for `Cc1cc(N2CCc3c(c(C)nn3CC34CCC(NCC(=O)N5CCCCC5)(CC3)CC4)C2)c2cnn(C)c2n1` [compound 99, 2-((4-((5-(1,6-dimethyl-1H-pyrazolo[3,4-b]pyridin-4-yl)-3-methyl-4,5,6,7-tetrahydro-1H-pyrazolo[4,3-c]pyridin-1-yl)methyl)bicyclo[2.2.2]octan-1-yl)amino)-1-(piperidin-1-yl)ethanone], the IC50 turned out to be 130 nM. For the molecule `Cc1nc(N2CCc3c(c(C)nn3CC34CCC(N5CCCCC5)(CC3)CC4)C2)c2cnn(C)c2n1` [compound 39, 1,6-dimethyl-4-(3-methyl-1-((4-(piperidin-1-yl)bicyclo[2.2.2]octan-1-yl)methyl)-6,7-dihydro-1H-pyrazolo[4,3-c]pyridin-5(4H)-yl)-1H-pyrazolo[3,4-c]pyrimidine], the half-maximal inhibitory concentration (IC50) came out at 119 nM. Consider `Cc1nc(N2CCc3c(c(C)nn3CC34CCC(N5CCCC5)(CC3)CC4)C2)c2cnn(C)c2n1` [compound 16, 1,6-dimethyl-4-(3-methyl-1-((4-(pyrrolidin-1-yl)bicyclo[2.2.2]octan-1-yl)methyl)-6,7-dihydro-1H-pyrazolo[4,3-c]pyridin-5(4H)-yl)-1H-pyrazolo[3,4-d]pyrimidine], for which the IC50 worked out at 443 nM. Under `Cc1cc(N2CCc3c(c(C)nn3CC34CCC(NC(=O)CO)(CC3)CC4)C2)c2cnn(C)c2n1` [Compound No. 135, N-(4-((5-(1,6-dimethyl-1H-pyrazolo[3,4-b]pyridin-4-yl)-3-methyl-4,5,6,7-tetrahydro-1H-pyrazolo[4,3-c]pyridin-1-yl)methyl)bicyclo[2.2.2]octan-1-yl)-2-hydroxyacetamide] stands 8440 nM; under `Cc1cc(N2CCc3c(c(C)nn3CC34CCC(N5C[C@@H](C)O[C@@H](C)C5)(CC3)CC4)C2)c2cnn(C)c2n1` [compound 110, (2S,6R)-4-(4-((5-(1,6-dimethyl-1H-pyrazolo[3,4-b]pyridin-4-yl)-3-methyl-4,5,6,7-tetrahydro-1H-pyrazolo[4,3-c]pyridin-1-yl)methyl)bicyclo[2.2.2]octan-1-yl)-2,6-dimethylmorpholine], 16 nM. Take `CN[C@H](C)C(=O)NC12CCC(Cn3nc(C)c4c3CCN(c3cc(C)nc5c3cnn5C)C4)(CC1)CC2` [compound 117, (R)-N-(4-((5-(1,6-dimethyl-1H-pyrazolo[3,4-b]pyridin-4-yl)-3-methyl-4,5,6,7-tetrahydro-1H-pyrazolo[4,3-c]pyridin-1-yl)methyl)bicyclo[2.2.2]octan-1-yl)-2-(methylamino)propanamide]: the concentration for half-maximal inhibition (IC50) is 236 nM. As for `Cc1nc(N2CCc3c(c(C)nn3CC34CCC(N5CCOCC5)(CC3)CC4)C2)c2cn[nH]c2n1` [compound 21, 4-(4-((3-methyl-5-(6-methyl-1H-pyrazolo[3,4-d]pyrimidin-4-yl)-4,5,6,7-tetrahydro-1H-pyrazolo[4,3-c]pyridin-1-yl)methyl)bicyclo[2.2.2]octan-1-yl)morpholine], the figure is 36 nM; as for `Cc1cc(N2CCc3c(c(C)nn3CC34CCC(NC5CCC5)(CC3)CO4)C2)c2cnn(C)c2n1` [compound 143, N-cyclobutyl-1-((5-(1,6-dimethyl-1H-pyrazolo[3,4-b]pyridin-4-yl)-3-methyl-4,5,6,7-tetrahydro-1H-pyrazolo[4,3-c]pyridin-1-yl)methyl)-2-oxabicyclo[2.2.2]octan-4-amine], 687 nM; as for `Cc1cc(N2CCc3c(c(C)nn3CC34CCC(NC(=O)CCN(C)C)(CC3)CC4)C2)c2cnn(C)c2n1` [compound 105, N-(4-((5-(1,6-dimethyl-1H-pyrazolo[3,4-b]pyridin-4-yl)-3-methyl-4,5,6,7-tetrahydro-1H-pyrazolo[4,3-c]pyridin-1-yl)methyl)bicyclo[2.2.2]octan-1-yl)-3-(dimethylamino)propanamide], 27 nM.

As for `Cc1cc(N2CCc3c(c(C)nn3CC34CCC(N5CCOC[C@H]5C)(CC3)CC4)C2)c2cnn(C)c2n1` [compound 129, (R)-4-(4-((5-(1,6-dimethyl-1H-pyrazolo[3,4-b]pyridin-4-yl)-3-methyl-4,5,6,7-tetrahydro-1H-pyrazolo[4,3-c]pyridin-1-yl)methyl)bicyclo[2.2.2]octan-1-yl)-3-methylmorpholine], the 50% inhibitory concentration (IC50) was 12 nM.
